What all share (type): cell-based
In one assay the target is T1, WT AR (Homo sapiens, UniProt P10275).
T1 construct: expressed in transfected cells; host or cells: COS-1
T1 sequence (P10275 1-920): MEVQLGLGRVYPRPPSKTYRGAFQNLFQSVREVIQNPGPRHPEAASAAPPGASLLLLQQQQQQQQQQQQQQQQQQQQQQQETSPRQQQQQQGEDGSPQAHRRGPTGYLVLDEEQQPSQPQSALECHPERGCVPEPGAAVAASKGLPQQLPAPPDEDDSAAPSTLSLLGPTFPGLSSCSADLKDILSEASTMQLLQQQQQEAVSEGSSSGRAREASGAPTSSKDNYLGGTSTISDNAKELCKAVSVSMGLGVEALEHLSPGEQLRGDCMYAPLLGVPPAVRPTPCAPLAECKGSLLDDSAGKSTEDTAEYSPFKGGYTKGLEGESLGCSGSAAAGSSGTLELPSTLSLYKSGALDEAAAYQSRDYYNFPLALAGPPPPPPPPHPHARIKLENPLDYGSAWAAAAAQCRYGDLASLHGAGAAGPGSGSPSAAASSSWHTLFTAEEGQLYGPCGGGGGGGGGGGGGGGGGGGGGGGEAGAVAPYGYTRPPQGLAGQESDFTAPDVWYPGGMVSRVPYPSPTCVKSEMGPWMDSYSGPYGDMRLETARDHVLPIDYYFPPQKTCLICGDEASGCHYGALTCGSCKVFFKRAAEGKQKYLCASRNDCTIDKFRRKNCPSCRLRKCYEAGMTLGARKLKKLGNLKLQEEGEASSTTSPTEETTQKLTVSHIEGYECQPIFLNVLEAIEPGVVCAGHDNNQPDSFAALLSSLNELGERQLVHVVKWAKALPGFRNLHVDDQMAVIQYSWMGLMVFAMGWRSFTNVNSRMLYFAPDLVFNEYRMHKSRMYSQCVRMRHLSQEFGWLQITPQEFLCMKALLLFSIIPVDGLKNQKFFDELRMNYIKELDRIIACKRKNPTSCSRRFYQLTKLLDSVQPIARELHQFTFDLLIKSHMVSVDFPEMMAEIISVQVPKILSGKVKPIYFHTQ
Kind of assay: Antagonism in WT AR, AR transactivation reporter gene assay in COS-1 cells, competitive setting with 50 nM testosterone. The following applies: 18 h. As to the method:
After 18 h, reporter gene activities (LUC and beta-galactosidase) were determined according to standard methods. The data are expressed as relative LUC activity (luciferase light units divided by beta-galactosidase A420nm to control for transfection efficiency) of a given compound in relation to the activity of a reference test item (=100%).
Antagonism in WT AR of compounds of the present invention was measured in AR transctivation assay in COS-1 cells in competitive setting using testosterone as a reference agonist as described above. […] Relative LUC activity representing AR-dependent transcription obtained by exposure to testosterone alone was set to 100%.

Another assay addresses T2, W741L AR (Homo sapiens, UniProt P10275, W742L).
T2 construct: expressed in transfected cells; host or cells: COS-1
T2 sequence (P10275 1-920 W742L): T1 sequence (P10275 1-920) with W742L
Description: Agonism in W741L mutant AR, AR transactivation assay in COS-1 cells, test compounds alone. The following applies: 10 microM, compound alone. The procedure:
COS-1 (American Type Culture Collection) were cultured in DMEM supplemented with 10% FBS, penicillin (6.25 U/ml) and streptomycin (6.25 μg/ml) and seeded onto 48-well plates (50 000 cells/well) one day before transfection. Transfection media containing 2.5% charcoal-stripped FBS in DMEM was changed on cells 4 h prior to transfection. Cells were transfected with 50 ng of reporter gene plasmid (pPB-286/+32-LUC; PB, probasin promoter), 5 ng of AR expression plasmid (pSG5-hAR), and 5 ng of pCMVβ (an internal, beta-galactosidase control for transfection efficiency and cell growth) using TranslT-LT1 reagent (Mirus Bio Corporation) according to the manufacturer's instructions. […] After 18 h, reporter gene activities (LUC and beta-galactosidase) were determined according to standard methods. The data are expressed as relative LUC activity (luciferase light units divided by beta-galactosidase A420nm to control for transfection efficiency) of a given compound in relation to the activity of a reference test item (=100%).
Agonism in W741L AR of compounds of the present invention was measured in AR transactivation assay in COS-1 cells as described above except that AR expression vector harboring the W741L mutation was used instead of the WT AR. The transfected cells were exposed to test compounds alone.

The next assay addresses T3, T877A AR (Homo sapiens, UniProt P10275, T878A).
T3 construct: expressed in transfected cells; host or cells: COS-1
T3 sequence (P10275 1-920 T878A): T1 sequence (P10275 1-920) with T878A
Kind of assay: Agonism in T877A mutant AR, AR transactivation assay in COS-1 cells, test compounds alone. The following applies: 10 microM, compound alone.

Numbering of substitutions follows the chain as printed.

Description for T877A AR: The transfected cells were exposed to test compounds alone. Testosterone was used as reference agonist, and its' relative LUC activity representing AR-dependent transcription was set to 100%.

On to `COc1ccc(C(O)(CS(=O)(=O)c2cccc(F)c2)C(=O)Nc2ccc(C#N)c(Cl)c2)cc1F` (stereo not drawn) [Example 33, N-(3-chloro-4-cyanophenyl)-2-(3-fluoro-4-methoxyphenyl)-3-[(3-fluorobenzene)sulfonyl]-2-hydroxypropanamide], for which the “Relative LUC activity (%) indicating residual androgen activity in relation to testosterone (100%)” value is listed as 5% on WT AR (1 microM compound) and 1% on WT AR (10 microM compound).
In the case of `N#Cc1ccc(NC(=O)C(O)(CS(=O)(=O)Cc2ccco2)c2ccc(C(F)(F)F)cc2)cc1C(F)(F)F` (stereo not drawn) [Example 3, N-[4-cyano-3-(trifluoro-methyl)phenyl]-3-[(furan-2-ylmethane)sulfonyl]-2-hydroxy-2-[4-(trifluoromethyl)phenyl]propanamide], the “Relative LUC activity (%) in W741L AR in relation to BIC (100%)” value (“Relative LUC activity (%) in W741L AR” for short) at W741L AR was determined as 4%. For the same compound, on T877A AR, the “Relative LUC activity (%) in T877A AR in relation to testosterone (100%)” value (shortened to “Relative LUC activity (%) in T877A AR”) was found to be 3%. Moreover, the “Relative LUC activity (%) indicating residual androgen activity in relation to testosterone (100%)” value on WT AR (1 microM compound) is reported as 17%; on WT AR (10 microM compound) it was 3%.
Regarding `COc1ccc(C(O)(CS(=O)(=O)Cc2ccc(F)cc2)C(=O)Nc2ccc(C#N)c(Cl)c2)cc1F` (stereo not drawn) [Example 32, N-(3-chloro-4-cyanophenyl)-2-(3-fluoro-4-methoxyphenyl)-3-{[(4-fluorophenyl)methane]sulfonyl}-2-hydroxypropanamide], the “Relative LUC activity (%) in W741L AR” value on W741L AR is given as 3%. Further, the “Relative LUC activity (%) in T877A AR” value at T877A AR was 2%. Also, the “Relative LUC activity (%) indicating residual androgen activity in relation to testosterone (100%)” value was found to be 24% on WT AR (1 microM compound) and 2% on WT AR (10 microM compound).
As to `CCS(=O)(=O)CC(O)(C(=O)Nc1ccc(C#N)c(Cl)c1)c1ccc(F)c(F)c1` (stereo not drawn) [Example 5, N-(3-chloro-4-cyanophenyl)-2-(3,4-difluorophenyl)-3-(ethanesulfonyl)-2-hydroxypropanamide], the “Relative LUC activity (%) in W741L AR” value on W741L AR was 18%. Also, the “Relative LUC activity (%) in T877A AR” value on T877A AR amounted to 9%.
On to `CC(C)CCS(=O)(=O)CC(O)(C(=O)Nc1ccc(C#N)c(C(F)(F)F)c1)c1ccc(F)cc1` (stereo not drawn) [Example 2, N-[4-cyano-3-(trifluoromethyl)phenyl]-2-(4-fluorophenyl)-2-hydroxy-3-[(3-methylbutane)-sulfonyl]propanamide], for which the “Relative LUC activity (%) indicating residual androgen activity in relation to testosterone (100%)” value is listed as 12% on WT AR (1 microM compound) and 3% on WT AR (10 microM compound).
Regarding `CCS(=O)(=O)CC(O)(C(=O)Nc1ccc(C#N)c(C(F)(F)F)c1)c1ccc(F)cc1` (stereo not drawn) [Example 1, N-[4-cyano-3-(trifluoro-methyl)phenyl]-3-(ethanesulfonyl)-2-(4-fluorophenyl)-2-hydroxypropanamide], the “Relative LUC activity (%) in W741L AR” value at W741L AR is 12%. Moreover, the “Relative LUC activity (%) in T877A AR” value on T877A AR came out at 14%.
Regarding `COc1ccc(C(O)(CS(=O)(=O)c2ccc(F)c(F)c2)C(=O)Nc2ccc(C#N)c(C(F)(F)F)c2)cc1F` (stereo not drawn) [Example 22, N-(4-cyano-3-(trifluoromethyl)phenyl)-3-[(3,4-difluorobenzene)sulfonyl]-2-hydroxy-2-[3-fluoro-4-(methoxy)phenyl]propanamide], the “Relative LUC activity (%) indicating residual androgen activity in relation to testosterone (100%)” value at WT AR (1 microM compound) is on record as 9%; at WT AR (10 microM compound), 3%.
For the compound `N#Cc1ccc(NC(=O)C(O)(CS(=O)(=O)c2ccc(F)c(F)c2)c2ccc(F)cc2)cc1Cl` (stereo not drawn) [Example 6, N-(3-chloro-4-cyanophenyl)-3-[(3,4-difluorobenzene)sulfonyl]-2-(4-fluorophenyl)-2-hydroxypropanamide], the “Relative LUC activity (%) indicating residual androgen activity in relation to testosterone (100%)” value on WT AR (1 microM compound) is listed as 7%; at WT AR (10 microM compound) it was 5%.
With `N#Cc1ccc(NC(=O)C(O)(CS(=O)(=O)c2cccc(F)c2)c2ccc(F)c(F)c2)cc1C(F)(F)F` (stereo not drawn) [Example 39, N-[4-cyano-3-(trifluoromethyl)phenyl]-2-(3,4-difluorophenyl)-3-[(3-fluorobenzene)sulfonyl]-2-hydroxypropanamide], the figures for the “Relative LUC activity (%) indicating residual androgen activity in relation to testosterone (100%)” value at WT AR (1 microM compound) and on WT AR (10 microM compound) were 14% and 2%, respectively.
As to `CCS(=O)(=O)CC(O)(C(=O)Nc1ccc(C#N)c(C(F)(F)F)c1)c1ccc(C(F)(F)F)cc1` (stereo not drawn) [Example 17, N-[4-cyano-3-(trifluoromethyl)phenyl]-3-(ethanesulfonyl)-2-[4-(trifuoromethyl)phenyl]-2-hydroxypropanamide], the “Relative LUC activity (%) indicating residual androgen activity in relation to testosterone (100%)” value on WT AR (1 microM compound) is 18%; at WT AR (10 microM compound) it was 3%.
